The results in this text go back to patent US20260042764A1, “COMPOSITIONS AND METHODS FOR INHIBITION OF KRAS” (TheRas, Inc., priority 2022, published 2026).

The target of assay [1] is T1, Avi-KRAS G12D (1-169) GppNHp/RAF1 RBD-3xFLAG (52-151) (Homo sapiens, UniProt P01116, G12D).
T1 construct: Avi-KRAS G12D (1-169)
The experiment in a line: Raf1-KRAS G12D-GppNHP disruption HTRF assay (Biological Example 1). The format is binding. The following applies: KRAS G12D, GppNHp-loaded; Table 11. How it is done: (§1) A protein:protein interaction (PPI) Homogeneous Time Resolved Fluorescence (HTRF) assay was used to determine the effectiveness of compounds of the present disclosure in disrupting KRAS protein and effector RAF1 binding.
(§2) The assay buffer included: 50 mM Tris pH 7.5, 100 mM NaCl, 5 mM MgCl2, 0.1% BSA, 0.01% Tween, and 10% DMSO. The bead buffer included: 50 mM Tris pH 7.5, and 0.01% Tween 20. Assay volume of 20 μL was used in a 384 well plate-low volume format.
(§3) The HTRF assay employed the following protocol:
(§4) Protein mix was prepared in assay buffer, and dispensed on plates, 10 μL per well, then incubated for 1 h at room temperature, with 700 rpm shaking, Reagents mix was prepared and dispensed on plates, 10 μL per well, then incubated for 1 h at room temperature, with 700 rpm shaking.
(§5) Data was reported as percentage of activity, with DMSO as 100%. Data was plotted and analyzed using Prism 8.

For assay [2], the target named is T2, Avi-KRAS G12R (1-169) GppNHp/RAF1 RBD-3xFLAG (52-151) (Homo sapiens, UniProt P01116, G12R).
T2 construct: Avi-KRAS G12R (1-169)
T2 sequence (P01116 1-169 isoform P01116-2 G12R): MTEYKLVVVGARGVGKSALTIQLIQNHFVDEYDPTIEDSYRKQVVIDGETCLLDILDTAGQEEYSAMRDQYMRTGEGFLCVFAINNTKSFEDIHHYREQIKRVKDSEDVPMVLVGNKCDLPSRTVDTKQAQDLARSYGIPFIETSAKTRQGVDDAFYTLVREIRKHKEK
In words: Raf1-KRAS G12R-GppNHP disruption HTRF assay (Biological Example 1). The format is binding. The following applies: KRAS G12R, GppNHp-loaded; Table 11. How it is done: as §1, §2, §3, §4, §5
(In general: Time-resolved FRET reads energy transfer from a long-lived donor to a nearby acceptor.)

Assay [3] addresses T3, Avi-KRAS G12V (1-169) GppNHp/RAF1 RBD-3xFLAG (52-151) (Homo sapiens, UniProt P01116, G12V).
T3 construct: Avi-KRAS G12V (1-169)
The experiment in a line: Raf1-KRAS G12V-GppNHP disruption HTRF assay (Biological Example 1). It counts as binding. The following applies: KRAS G12V, GppNHp-loaded; Table 11. How it is done:
as §1, §2, §3, §4, §5

Assay [4] addresses T4, Avi-KRAS WT (1-169) GppNHp/RAF1 RBD-3xFLAG (52-151) (Homo sapiens, UniProt P01116).
T4 construct: Avi-KRAS WT (1-169)
The experiment in a line: Raf1-KRAS WT-GppNHP disruption HTRF assay (Biological Example 1). The format is binding. The following applies: KRAS WT, GppNHp-loaded; Table 11. How it is done:
as §1, §2, §3, §4, §5

For the next assay, the system named is GP2d cells (KRAS G12D). The experiment in a line: Cell-based pERK HTRF assay in GP2d cell (Biological Example 2). The following applies: GP2d, GP2d (KRAS G12D) cells, pERK HTRF. How it is done: A pERK assay (Perkin Elmer) was used to determine the effectiveness of compounds in disrupting KRAS G12D protein/effector signaling in cells.
On Day 1, cells (GP2d) were seeded into 96-well plates at 3×10^4 cells/well in 80 μL complete growth media (DMEM, 10% FBS).
On Day 2, cells were treated with compounds at 0.25% DMSO. The source plate was created with compounds diluted in media at 5-fold the final assay concentration. The compounds were run in a 9-point concentration curve starting at 1 μM or in a 9-point concentration curve starting at 100 nM, with a half-log dilution between concentrations. Twenty μL was transferred onto the cell plates (final volume in wells was 100 μL). Plates were harvested after 60 min incubation by aspirating media and adding kit-supplied 1x supplemented lysis buffer to all wells (50 μL per well). Plates were then placed on a plate shaker and incubated at 850 rpm for an additional 30 min.
Antibody mixture solution was prepared by diluting aliquoted d2 and Eu Cryptate antibodies 1:20 in kit supplied detection buffer, and mixing the diluted antibodies solutions (1:1 v:v).
Samples were homogenized by pipetting up and down and then transferred (16 μL of cell lysates) from the 96-well cell culture plate to two wells of the HTRF 384-well detection plate containing the antibody solution. Plates were centrifuged (524 g for 1 min) and allowed to incubate between 4 and 24 h at room temperature. Maximum signal is reached after 4 h incubation time and remains stable over a period of 24 hours. Therefore, readings can be made between 4 and 24 h of incubation. Plates were centrifuged again (524 g for Imin), then analyzed on the EnVision plate reader using the following settings: Excitation 320 nm, Bandwidth 75 nm; Emission 615 nm, Bandwidth 85 nm; Gain 100%; Flashes 100; Lag 60 μs.

T1 sequence (P01116 1-169 isoform P01116-2 G12D): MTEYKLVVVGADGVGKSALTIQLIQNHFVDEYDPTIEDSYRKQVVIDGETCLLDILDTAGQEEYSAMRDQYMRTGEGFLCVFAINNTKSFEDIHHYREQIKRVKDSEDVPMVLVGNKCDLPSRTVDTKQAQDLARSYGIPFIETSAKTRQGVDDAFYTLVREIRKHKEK
T4 sequence (P01116 1-169 isoform P01116-2): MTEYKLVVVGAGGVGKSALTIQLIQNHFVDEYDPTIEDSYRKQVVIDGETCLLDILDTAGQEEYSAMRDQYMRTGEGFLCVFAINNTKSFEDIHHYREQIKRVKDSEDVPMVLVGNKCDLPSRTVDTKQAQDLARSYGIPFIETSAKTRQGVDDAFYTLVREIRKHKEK
T3 sequence (P01116 1-169 isoform P01116-2 G12V): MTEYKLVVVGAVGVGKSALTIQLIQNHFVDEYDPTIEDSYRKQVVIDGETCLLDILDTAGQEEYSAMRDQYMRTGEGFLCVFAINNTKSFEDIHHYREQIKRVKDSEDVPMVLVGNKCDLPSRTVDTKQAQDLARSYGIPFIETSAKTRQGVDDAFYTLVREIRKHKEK

A word on the IC50: it is the point on the concentration scale where inhibition reaches its midpoint. High values mean weaker potency, low ones greater potency. Turning to `CN(c1nc(OC[C@@]23CCCN2C[C@H](F)C3)nc2c(F)c(-c3ccc(F)c4sc(N)nc34)c(C(F)(F)F)cc12)[C@H]1C[C@@H](O)C1` (atropisomer, axis not shown) [Compound 8], the IC50 is 100 to 1000 nM in assay [1], 1000 to 10000 nM in assay [2], 100 to 1000 nM in assay [3] and 100 to 1000 nM in assay [4].
Take `CN(c1nc(OCC2(CN3CCOCC3)CC2)nc2c(F)c(-c3ccc(F)c4sc(N)nc34)c(C(F)(F)F)cc12)[C@H]1C[C@@H](O)C1` (atropisomer, axis not shown) [Compound 16]: the IC50 in assay [1], in assay [2], in assay [3] and in assay [4] was 1000 to 10000 nM each time.
Turning to `CO[C@@H]1C[C@@H](COc2nc(N(C)[C@H]3C[C@@H](O)C3)c3cc(C(F)(F)F)c(-c4ccc(F)c5sc(N)nc45)c(F)c3n2)N(C)C1` (atropisomer, axis not shown) [Compound 17], the IC50 was over 10000 nM in assay [1], over 10000 nM in assay [3] and 1000 to 10000 nM in assay [4].
Regarding `Nc1nc2c(-c3c(C(F)(F)F)cc4c(N[C@H]5CC[C@@H](O)C5)nc(OCC56CCCN5CCC6)nc4c3F)ccc(F)c2s1` (atropisomer, axis not shown) [Compound 60], the IC50 in assay [1] was 1000 to 10000 nM; in assay [3] it was over 10000 nM; in assay [4] it was 1000 to 10000 nM.
Consider `Nc1nc2c(-c3c(C(F)(F)F)cc4c(N[C@H]5CC[C@H](O)C5)nc(OCC56CCCN5CCC6)nc4c3F)ccc(F)c2s1` (atropisomer, axis not shown) [Compound 61], for which the IC50 is 1000 to 10000 nM in assay [1], over 10000 nM in assay [3] and 1000 to 10000 nM in assay [4].
For `CN(c1nc(OCC23CCCN2CCC3)nc2c(F)c(-c3ccc(F)c4sc(N)nc34)c(C(F)(F)F)cc12)[C@@H]1CC[C@H](O)C1` (atropisomer, axis not shown) [Compound 62], the IC50 is 1000 to 10000 nM in assay [1], 1000 to 10000 nM in assay [2], over 10000 nM in assay [3] and 1000 to 10000 nM in assay [4].
For `Nc1nc2c(-c3c(C(F)(F)F)cc4c(N[C@H]5CCC[C@@H](O)C5)nc(OCC56CCCN5CCC6)nc4c3F)ccc(F)c2s1` (atropisomer, axis not shown) [Compound 67], the IC50 in assay [1] was 1000 to 10000 nM; in assay [3], over 10000 nM; in assay [4], 1000 to 10000 nM.
For the compound `CN(c1nc(OCC2(CN3CCOCC3)CC2)nc2c(F)c(-c3ccc(F)c4sc(N)c(C#N)c34)c(C(F)(F)F)cc12)[C@H]1C[C@@H](O)C1` (atropisomer, axis not shown) [Compound 122], the IC50 in assay [1], in assay [2], in assay [3] and in assay [4] was 100 to 1000 nM each time.
Consider `CN(c1nc(OC[C@@]23CCCN2C[C@H](F)C3)nc2c(F)c(-c3ccc(F)c4sc(N)c(C#N)c34)c(C(F)(F)F)cc12)[C@H]1C[C@@H](F)C1` (atropisomer, axis not shown) [Compound 160], for which the IC50 in assay [1] was 100 to 1000 nM; in assay [2] it was 100 to 1000 nM; in assay [3], 1000 to 10000 nM; in assay [4], 100 to 1000 nM.
Consider `CN(c1nc(OC[C@@]23CCCN2C[C@H](F)C3)nc2c(F)c(-c3ccc(F)c4sc(N)c(C#N)c34)c(C(F)(F)F)cc12)[C@]1(CC#N)C[C@H](O)C1` (atropisomer, axis not shown) [Compound 249], for which the IC50 was 100 to 1000 nM in assay [1], 100 to 1000 nM in assay [2], 1000 to 10000 nM in assay [3] and 100 to 1000 nM in assay [4].
For `CN(c1nc(OCC23CCCN2CCC3)nc2c(F)c(-c3ccc(F)c4sc(N)nc34)c(C(F)(F)F)cc12)C1CC(O)C12CCCC2` (single isomer, unassigned) [Compound 10], the IC50 in assay [1], in assay [2], in assay [3] and in assay [4] was over 10000 nM throughout.
As to `CN(c1nc(OCC23CCCN2CCC3)nc2c(F)c(-c3ccc(F)c4sc(N)nc34)c(C(F)(F)F)cc12)C1CC(CO)C1` (centres unmarked) [Compound 4], the IC50 in assay [1] is 1000 to 10000 nM; in assay [2], over 10000 nM; in assay [3], over 10000 nM; in assay [4], 1000 to 10000 nM.
Turning to `CN(c1nc(OCC23CCCN2CCC3)nc2c(F)c(-c3ccc(F)c4sc(N)nc34)c(-c3ccoc3)cc12)[C@H]1C[C@@H](O)C1` [Compound 6], the IC50 in assay [1] was 1000 to 10000 nM; in assay [3] it was over 10000 nM; in assay [4], 1000 to 10000 nM.
Regarding `Nc1nc2c(-c3c(C(F)(F)F)cc4c(N5CCC(CO)CC5)nc(OCC56CCCN5CCC6)nc4c3F)ccc(F)c2s1` [Compound 43], the IC50 in assay [1] fell in the range of 100 to 1000 nM; in assay [2] it was 1000 to 10000 nM; in assay [3], 1000 to 10000 nM; in assay [4] it was 100 to 1000 nM.
In the case of `Nc1nc2c(-c3c(C(F)(F)F)cc4c(N5CCC(O)CC5)nc(OCC56CCCN5CCC6)nc4c3F)ccc(F)c2s1` [Compound 51], the results for the IC50 in assay [1], in assay [3] and in assay [4] were 1000 to 10000 nM, over 10000 nM and 1000 to 10000 nM, respectively.
For the compound `Nc1nc2c(-c3c(C(F)(F)F)cc4c(N5CC6CCC(C5)C6O)nc(OCC56CCCN5CCC6)nc4c3F)ccc(F)c2s1` (centres unmarked) [Compound 52], the IC50 in assay [1], in assay [3] and in assay [4] was 1000 to 10000 nM each time.
Take `Nc1nc2c(-c3c(C(F)(F)F)cc4c(N5CCCC(O)C5)nc(OCC56CCCN5CCC6)nc4c3F)ccc(F)c2s1` (centres unmarked) [Compound 53]: the IC50 in assay [1] is 1000 to 10000 nM; in assay [2], 1000 to 10000 nM; in assay [3], over 10000 nM; in assay [4] it was over 10000 nM.
Consider `Nc1nc2c(-c3c(C(F)(F)F)cc4c(N5CCCC(CO)C5)nc(OCC56CCCN5CCC6)nc4c3F)ccc(F)c2s1` (centres unmarked) [Compound 54], for which the IC50 in assay [1] is 1000 to 10000 nM; in assay [3], over 10000 nM; in assay [4], over 10000 nM.
`Nc1nc2c(-c3c(C(F)(F)F)cc4c(N5CCC(O)C5)nc(OCC56CCCN5CCC6)nc4c3F)ccc(F)c2s1` (centres unmarked) [Compound 55]: the IC50 in assay [1] is 1000 to 10000 nM; in assay [2], over 10000 nM; in assay [3], over 10000 nM; in assay [4] it was 1000 to 10000 nM.
`Nc1nc2c(-c3c(C(F)(F)F)cc4c(N5CCC(CO)C5)nc(OCC56CCCN5CCC6)nc4c3F)ccc(F)c2s1` (centres unmarked) [Compound 56]: the IC50 in assay [1] is 1000 to 10000 nM; in assay [2], over 10000 nM; in assay [3], over 10000 nM; in assay [4], 1000 to 10000 nM.
In the case of `Nc1nc2c(-c3c(C(F)(F)F)cc4c(N5CC(CO)C5)nc(OCC56CCCN5CCC6)nc4c3F)ccc(F)c2s1` [Compound 57], the IC50 is 1000 to 10000 nM in assay [1], 1000 to 10000 nM in assay [2], over 10000 nM in assay [3] and 1000 to 10000 nM in assay [4].
As for `N#Cc1c(N)sc2c(F)ccc(-c3c(C(F)(F)F)cc4c(N5CC6(CC(O)C6)C5)nc(OC[C@@]56CCCN5C[C@H](F)C6)nc4c3F)c12` [Compound 58], the IC50 (in assay [1]; in assay [3]; in assay [4]; in the assay on GP2d cells (KRAS G12D)) was 100 to 1000 nM in each case.
For the compound `Nc1nc2c(-c3c(C(F)(F)F)cc4c(N[C@H]5CC[C@H](O)CC5)nc(OCC56CCCN5CCC6)nc4c3F)ccc(F)c2s1` [Compound 63], the IC50 in assay [1] was 1000 to 10000 nM; in assay [3] it was over 10000 nM; in assay [4], 1000 to 10000 nM.
`CCC(=O)N1C2CCC1CN(c1nc(OC[C@@]34CCCN3C[C@H](F)C4)nc3c(F)c(-c4ccc(F)c5sc(N)nc45)c(C(F)(F)F)cc13)C2` [Compound 97]: the IC50 in assay [1], in assay [3] and in assay [4] was over 10000 nM throughout.
